Experimental data published in patent publication US20230148005A1, “MACROCYCLIC COMPOUNDS AND USES THEREOF” (THESEUS PHARMACEUTICALS, INC., priority 2020, published 2023).
Read-outs that look alike come from different tables or passages of the source.

Tests used:
Ba/F3 EGFR-Del19/T790M = Ba/F3 EGFR-Del19/T790M (Homo sapiens, UniProt P00533, T790M, cells depend on it, form not given); experiment: Ba/F3 viability assay (CellTiter-Glo), DT; assay type: cell-based; conditions: anti-proliferation, read-out: BaF3 DT IC50
Ba/F3 EGFR-Del19/T790M, sequence (P00533 with tags, fused parts or gaps DEL746-750/T790M, form open): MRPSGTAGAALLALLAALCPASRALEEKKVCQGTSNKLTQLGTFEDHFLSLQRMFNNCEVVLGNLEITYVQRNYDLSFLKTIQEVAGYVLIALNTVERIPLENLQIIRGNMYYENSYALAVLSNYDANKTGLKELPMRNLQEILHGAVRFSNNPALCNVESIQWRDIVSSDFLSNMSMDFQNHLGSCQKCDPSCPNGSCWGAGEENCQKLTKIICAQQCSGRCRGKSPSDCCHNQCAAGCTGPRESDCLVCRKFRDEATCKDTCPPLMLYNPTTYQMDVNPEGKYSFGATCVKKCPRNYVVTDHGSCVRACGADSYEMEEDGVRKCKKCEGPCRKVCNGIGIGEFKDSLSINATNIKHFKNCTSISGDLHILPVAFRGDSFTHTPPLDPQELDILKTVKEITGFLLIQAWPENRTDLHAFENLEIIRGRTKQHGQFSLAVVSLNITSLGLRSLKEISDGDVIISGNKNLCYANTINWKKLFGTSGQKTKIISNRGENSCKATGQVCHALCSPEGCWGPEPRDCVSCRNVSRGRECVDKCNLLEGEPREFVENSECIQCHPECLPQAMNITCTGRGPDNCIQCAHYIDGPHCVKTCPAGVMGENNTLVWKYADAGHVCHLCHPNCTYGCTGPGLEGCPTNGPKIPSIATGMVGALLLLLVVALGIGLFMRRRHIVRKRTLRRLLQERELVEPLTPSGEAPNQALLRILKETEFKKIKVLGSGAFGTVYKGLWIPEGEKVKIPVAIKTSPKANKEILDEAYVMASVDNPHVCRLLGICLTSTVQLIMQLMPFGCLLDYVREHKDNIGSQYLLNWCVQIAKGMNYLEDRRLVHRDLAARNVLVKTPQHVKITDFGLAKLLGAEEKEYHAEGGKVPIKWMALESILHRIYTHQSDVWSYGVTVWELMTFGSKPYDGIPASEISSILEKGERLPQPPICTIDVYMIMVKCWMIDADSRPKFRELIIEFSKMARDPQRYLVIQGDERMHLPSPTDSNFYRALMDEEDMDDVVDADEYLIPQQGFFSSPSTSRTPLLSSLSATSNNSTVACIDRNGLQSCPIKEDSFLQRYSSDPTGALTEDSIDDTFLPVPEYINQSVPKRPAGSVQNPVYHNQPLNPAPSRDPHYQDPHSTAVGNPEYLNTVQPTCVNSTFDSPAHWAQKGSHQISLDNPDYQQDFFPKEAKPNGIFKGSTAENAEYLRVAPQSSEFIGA
Outline: (§1)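 Proliferation inhibition, viability-based; mutant EGFR lines plus parental control.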

EGFR^L858R = EGFR^L858R (Homo sapiens, UniProt P00533, L858R); experiment: in vitro kinase assay (HTRF KinEASE-TK kit), L; assay type: biochemical; conditions: kinase inhibition
Text: (§2) Assays using an in vitro kinase assay kit (HTRF KinEASE-TK kit) can be used to study the inhibitory activity of compounds described herein with respect to EGFR mutants such as EGFR^L858R, EGFR^L58R/T790M, and EGFR^L858R/T790M/C^797S.

[1] = molecular target: Ba/F3 EGFR-Del19/T790M/C797S (Homo sapiens, UniProt P00533, T790M/C797S, cells depend on it, form not given); experiment: Ba/F3 viability assay (CellTiter-Glo), DTC; assay type: cell-based; conditions: anti-proliferation, read-out: BaF3 DTC IC50
Outline: as §1

EGFR^L58R/T790M = EGFR^L58R/T790M (Homo sapiens, UniProt P00533, L858R/T790M); experiment: in vitro kinase assay (HTRF KinEASE-TK kit), LT; assay type: biochemical; conditions: kinase inhibition
EGFR^L58R/T790M, sequence (P00533 25-1210 T790M/L858R): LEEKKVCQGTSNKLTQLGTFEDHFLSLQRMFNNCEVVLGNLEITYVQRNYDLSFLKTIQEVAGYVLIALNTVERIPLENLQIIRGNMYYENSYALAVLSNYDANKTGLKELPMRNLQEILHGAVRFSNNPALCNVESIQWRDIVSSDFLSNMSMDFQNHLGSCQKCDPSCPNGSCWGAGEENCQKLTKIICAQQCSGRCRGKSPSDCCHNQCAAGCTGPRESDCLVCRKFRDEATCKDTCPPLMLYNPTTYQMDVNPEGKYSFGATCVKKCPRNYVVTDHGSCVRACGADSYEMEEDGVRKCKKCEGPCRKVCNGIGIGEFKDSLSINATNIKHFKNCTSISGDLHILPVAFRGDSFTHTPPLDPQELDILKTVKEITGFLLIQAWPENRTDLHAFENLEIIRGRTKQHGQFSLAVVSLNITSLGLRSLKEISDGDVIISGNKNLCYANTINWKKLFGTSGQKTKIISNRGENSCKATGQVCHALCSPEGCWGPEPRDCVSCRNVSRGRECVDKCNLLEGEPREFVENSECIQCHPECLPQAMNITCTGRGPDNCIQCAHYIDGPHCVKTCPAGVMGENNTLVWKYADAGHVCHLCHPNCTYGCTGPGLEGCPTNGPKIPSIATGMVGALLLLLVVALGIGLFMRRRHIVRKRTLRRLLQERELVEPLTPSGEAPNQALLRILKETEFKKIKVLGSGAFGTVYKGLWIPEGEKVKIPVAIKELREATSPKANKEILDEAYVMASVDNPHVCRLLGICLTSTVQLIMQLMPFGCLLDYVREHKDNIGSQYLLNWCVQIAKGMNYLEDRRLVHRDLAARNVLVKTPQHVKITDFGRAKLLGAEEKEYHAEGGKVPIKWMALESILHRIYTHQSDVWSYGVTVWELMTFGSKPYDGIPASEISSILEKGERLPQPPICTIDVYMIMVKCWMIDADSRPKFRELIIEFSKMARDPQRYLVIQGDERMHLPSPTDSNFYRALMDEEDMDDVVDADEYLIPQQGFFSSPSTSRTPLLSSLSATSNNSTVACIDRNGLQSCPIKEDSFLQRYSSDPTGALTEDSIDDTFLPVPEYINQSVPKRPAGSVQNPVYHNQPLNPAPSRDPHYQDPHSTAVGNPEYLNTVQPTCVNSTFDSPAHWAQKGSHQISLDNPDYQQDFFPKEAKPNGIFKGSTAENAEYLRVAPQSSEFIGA
Text: as §2

EGFR^L858R/T790M/C^797S = EGFR^L858R/T790M/C^797S (Homo sapiens, UniProt P00533, C797S/L858R/T790M); experiment: in vitro kinase assay (HTRF KinEASE-TK kit), LTC; assay type: biochemical; conditions: kinase inhibition
EGFR^L858R/T790M/C^797S, sequence (P00533 25-1210 T790M/C797S/L858R): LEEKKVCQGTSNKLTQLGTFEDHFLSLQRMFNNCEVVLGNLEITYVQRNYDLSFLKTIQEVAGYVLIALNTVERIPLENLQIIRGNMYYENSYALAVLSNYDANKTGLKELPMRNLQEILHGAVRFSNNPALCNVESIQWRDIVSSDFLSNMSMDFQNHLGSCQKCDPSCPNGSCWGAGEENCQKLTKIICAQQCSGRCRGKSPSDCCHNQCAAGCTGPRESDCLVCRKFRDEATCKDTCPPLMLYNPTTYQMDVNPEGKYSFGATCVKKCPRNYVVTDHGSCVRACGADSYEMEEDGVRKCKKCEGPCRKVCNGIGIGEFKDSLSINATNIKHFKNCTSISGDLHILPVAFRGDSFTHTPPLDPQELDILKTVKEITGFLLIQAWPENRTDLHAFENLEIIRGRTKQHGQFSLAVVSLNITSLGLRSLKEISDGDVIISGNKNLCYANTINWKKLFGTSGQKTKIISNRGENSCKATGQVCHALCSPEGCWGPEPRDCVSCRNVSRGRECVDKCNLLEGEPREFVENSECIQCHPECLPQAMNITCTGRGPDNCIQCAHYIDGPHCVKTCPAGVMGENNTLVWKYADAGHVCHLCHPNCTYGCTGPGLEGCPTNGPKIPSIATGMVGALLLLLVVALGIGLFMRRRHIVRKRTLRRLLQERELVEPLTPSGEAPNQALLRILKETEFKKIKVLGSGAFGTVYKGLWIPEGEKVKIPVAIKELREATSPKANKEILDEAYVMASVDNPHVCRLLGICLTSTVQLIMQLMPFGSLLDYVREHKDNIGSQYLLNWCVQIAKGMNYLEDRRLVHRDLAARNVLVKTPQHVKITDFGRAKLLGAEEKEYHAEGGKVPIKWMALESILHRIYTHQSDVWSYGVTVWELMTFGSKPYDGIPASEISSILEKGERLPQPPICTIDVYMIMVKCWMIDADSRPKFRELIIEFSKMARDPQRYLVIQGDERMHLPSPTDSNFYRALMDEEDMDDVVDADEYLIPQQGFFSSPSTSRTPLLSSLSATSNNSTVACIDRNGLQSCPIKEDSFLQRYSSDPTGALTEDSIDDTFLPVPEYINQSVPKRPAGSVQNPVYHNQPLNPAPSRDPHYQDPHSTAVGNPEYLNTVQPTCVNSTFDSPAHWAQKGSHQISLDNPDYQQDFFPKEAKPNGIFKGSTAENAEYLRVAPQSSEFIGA
Text: as §2

Ba/F3 EGFR-Del19/C797S = Ba/F3 EGFR-Del19/C797S (Homo sapiens, UniProt P00533, C797S, cells depend on it, form not given); experiment: Ba/F3 viability assay (CellTiter-Glo), DC; assay type: cell-based; conditions: anti-proliferation, read-out: BaF3 DC IC50
Ba/F3 EGFR-Del19/C797S, sequence (P00533 with tags, fused parts or gaps DEL746-750/C797S, form open): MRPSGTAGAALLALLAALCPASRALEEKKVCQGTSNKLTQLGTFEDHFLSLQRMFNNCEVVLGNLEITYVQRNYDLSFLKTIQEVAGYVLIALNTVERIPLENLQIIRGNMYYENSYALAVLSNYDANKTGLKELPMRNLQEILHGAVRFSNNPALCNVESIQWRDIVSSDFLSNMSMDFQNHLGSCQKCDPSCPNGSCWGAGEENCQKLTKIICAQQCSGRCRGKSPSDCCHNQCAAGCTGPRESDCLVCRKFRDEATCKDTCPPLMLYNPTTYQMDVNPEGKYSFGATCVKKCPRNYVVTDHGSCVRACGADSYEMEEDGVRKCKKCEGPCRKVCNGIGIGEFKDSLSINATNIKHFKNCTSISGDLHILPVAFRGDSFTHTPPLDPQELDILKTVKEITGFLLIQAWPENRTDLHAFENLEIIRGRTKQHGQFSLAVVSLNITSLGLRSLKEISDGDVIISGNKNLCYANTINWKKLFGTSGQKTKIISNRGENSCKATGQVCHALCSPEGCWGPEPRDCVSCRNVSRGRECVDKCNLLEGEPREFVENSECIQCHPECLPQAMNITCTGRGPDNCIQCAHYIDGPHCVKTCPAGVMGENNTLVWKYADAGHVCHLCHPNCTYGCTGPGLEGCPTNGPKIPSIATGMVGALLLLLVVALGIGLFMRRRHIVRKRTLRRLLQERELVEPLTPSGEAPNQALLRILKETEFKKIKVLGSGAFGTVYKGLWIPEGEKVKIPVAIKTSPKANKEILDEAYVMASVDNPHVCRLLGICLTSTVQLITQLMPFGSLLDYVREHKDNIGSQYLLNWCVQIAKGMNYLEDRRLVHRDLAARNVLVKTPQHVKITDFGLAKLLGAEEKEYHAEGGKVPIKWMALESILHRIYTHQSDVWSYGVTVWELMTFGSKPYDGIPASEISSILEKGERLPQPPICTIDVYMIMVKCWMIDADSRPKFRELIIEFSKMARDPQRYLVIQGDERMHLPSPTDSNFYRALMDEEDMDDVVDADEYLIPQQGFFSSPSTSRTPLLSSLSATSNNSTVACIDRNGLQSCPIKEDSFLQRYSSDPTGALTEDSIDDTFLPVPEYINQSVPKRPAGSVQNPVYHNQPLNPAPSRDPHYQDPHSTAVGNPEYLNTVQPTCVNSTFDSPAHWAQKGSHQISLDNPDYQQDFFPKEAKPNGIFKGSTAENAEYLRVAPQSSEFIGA
Outline: as §1

Ba/F3 Parental = experiment: Ba/F3 viability assay (CellTiter-Glo), parental; assay type: cell-based
Outline: as §1

[2] = Mus musculus, BaF3, anti-proliferation

| SMILES | GI50 (Ba/F3 EGFR-Del19/T790M) | IC50 (EGFR^L858R) | GI50 [1] | IC50 (EGFR^L58R/T790M) | IC50 (EGFR^L858R/T790M/C^797S) | GI50 (Ba/F3 EGFR-Del19/C797S) | IC50 (Ba/F3 Parental; [2]) | IC50 (Ba/F3 Parental; anti-proliferation, read-out: BaF3 parental IC50) |
| --- | --- | --- | --- | --- | --- | --- | --- | --- |
| C[C@H]1CCOc2c(cnn2C)-c2nccc(n2)Nc2cc3c(cn2)c(N2CC[C@H](N(C)CCCF)C2)nn31 [(180)] | 10 to 100 nM | 10 to 100 nM | < 10 nM | < 10 nM | < 10 nM | 10 to 100 nM | 100 to 1000 nM | – |
| CCN(CC)CCOc1cc(-c2nn3c4cc(ncc24)Nc2ccnc(n2)-c2cnn(C)c2OCC[C@@H]3C)ccc1F [(149)] | < 10 nM | < 10 nM | < 10 nM | < 10 nM | < 10 nM | 10 to 100 nM | 100 to 1000 nM | – |
| CN(C)CC1CCN(c2nn3c4cc(ncc24)Nc2ccnc(n2)-c2cnn(C)c2OCCC3)C1 (stereo not drawn) [(13)] | 10 to 100 nM | 10 to 100 nM | 10 to 100 nM | < 10 nM | < 10 nM | 100 to 1000 nM | 100 to 1000 nM | – |
| C[C@H]1CCOc2c(cnn2C)-c2nccc(n2)Nc2cc3c(cn2)c(-c2cccc(CN(C)C)n2)nn31 [(182)] | 10 to 100 nM | 10 to 100 nM | < 10 nM | < 10 nM | < 10 nM | 10 to 100 nM | 100 to 1000 nM | – |
| CC1CCCOc2c(cnn2C)-c2nccc(n2)Nc2cc3c(cn2)c(-c2cc(CN4CCN(C)CC4)nn2C)nn31 (stereo not drawn) [(84)] | 10 to 100 nM | 10 to 100 nM | 10 to 100 nM | < 10 nM | < 10 nM | 100 to 1000 nM | 100 to 1000 nM | – |
| C[C@H]1CCCOc2c(cnn2C)-c2nccc(n2)Nc2cc3c(cn2)c(N2CCC2)nn31 [(78)] | 10 to 100 nM | 10 to 100 nM | 10 to 100 nM | < 10 nM | < 10 nM | 10 to 100 nM | 100 to 1000 nM | – |
| CN(C)CC1CCCN1c1nn2c3cc(ncc13)Nc1ccnc(n1)-c1cnn(C)c1OCCC2 (stereo not drawn) [(11)] | 100 to 1000 nM | 100 to 1000 nM | 100 to 1000 nM | < 10 nM | < 10 nM | 100 to 1000 nM | 100 to 1000 nM | – |
| CC1CCOc2c(cnn2C)-c2nccc(n2)Nc2cc3c(cn2)c(N2CC(C(=O)N(C)C)C2)nn31 (stereo not drawn) [(16)] | 10 to 100 nM | 10 to 100 nM | 10 to 100 nM | < 10 nM | < 10 nM | 10 to 100 nM | 100 to 1000 nM | – |
| CC1CCOc2c(cnn2C)-c2nccc(n2)Nc2cc3c(cn2)c(N2CC(C(C)(C)O)C2)nn31 (stereo not drawn) [(8)] | 10 to 100 nM | 10 to 100 nM | 10 to 100 nM | < 10 nM | < 10 nM | 10 to 100 nM | 100 to 1000 nM | – |
| CC1CCCOc2c(cnn2C)-c2nccc(n2)Nc2cc3c(cn2)c(-c2ccc(CN4CCN(C5CC5)CC4)o2)nn31 (stereo not drawn) [(87)] | 10 to 100 nM | 10 to 100 nM | < 10 nM | < 10 nM | < 10 nM | 10 to 100 nM | 100 to 1000 nM | – |
| COC(=O)C1CCCN1c1nn2c3cc(ncc13)Nc1ccnc(n1)-c1cnn(C)c1OCCC2 (stereo not drawn) [(61)] | 100 to 1000 nM | 100 to 1000 nM | 100 to 1000 nM | < 10 nM | 10 to 100 nM | 100 to 1000 nM | ≥ 1000 nM | – |
| CN1CCN(CC2CCN(c3nn4c5cc(ncc35)Nc3ccnc(n3)-c3cnn(C)c3OCCC4)C2)CC1 (stereo not drawn) [(57)] | 10 to 100 nM | 10 to 100 nM | 10 to 100 nM | < 10 nM | < 10 nM | 10 to 100 nM | 100 to 1000 nM | – |
| C[C@H]1CCOc2c(cnn2C)-c2nccc(n2)Nc2cc3c(cn2)c(N2CC[C@@H](O)C2)nn31 [(112)] | < 10 nM | < 10 nM | < 10 nM | < 10 nM | < 10 nM | 10 to 100 nM | 100 to 1000 nM | – |
| C[C@H]1CCOc2c(cnn2C)-c2nccc(n2)Nc2cc3c(cn2)c(-c2cc(CN4CCN(C5CC5)CC4)n(C)c2)nn31 [(147)] | < 10 nM | < 10 nM | < 10 nM | < 10 nM | < 10 nM | < 10 nM | 100 to 1000 nM | – |
| CCn1cc(-c2nn3c4cc(ncc24)Nc2ccnc(n2)-c2cnn(C)c2OCCC3C)cc1CN1CCN(C)CC1 (stereo not drawn) [(76)] | < 10 nM | < 10 nM | < 10 nM | < 10 nM | < 10 nM | < 10 nM | 10 to 100 nM | – |
| C[C@H]1CCOc2c(cnn2C)-c2nccc(n2)Nc2cc3c(cn2)c(-c2cc(CN4CCN(C)CC4)n(C)c2)nn31 [(144)] | < 10 nM | < 10 nM | < 10 nM | < 10 nM | < 10 nM | < 10 nM | 10 to 100 nM | – |
| C[C@H]1CCOc2c(cnn2C)-c2nccc(n2)Nc2cc3c(cn2)c(-c2ccc(CN4CCCCC4)n2C)nn31 [(121)] | < 10 nM | < 10 nM | < 10 nM | < 10 nM | < 10 nM | < 10 nM | 100 to 1000 nM | – |
| Cc1nc(-c2nn3c4cc(ncc24)Nc2ccnc(n2)-c2cnn(C)c2OCC[C@@H]3C)sc1CN1CCOCC1 [(174)] | < 10 nM | < 10 nM | < 10 nM | < 10 nM | < 10 nM | < 10 nM | 100 to 1000 nM | – |
| CC(C)n1cc(-c2nn3c4cc(ncc24)Nc2ccnc(n2)-c2cnn(C)c2OCC[C@@H]3C)cc1CN1CCOCC1 [(151)] | < 10 nM | < 10 nM | < 10 nM | < 10 nM | < 10 nM | 10 to 100 nM | 100 to 1000 nM | – |
| C[C@@H]1CCCOc2c(cnn2C)-c2nccc(n2)Nc2cc3c(cn2)c(N2CCC2)nn31 [(77)] | ≥ 1000 nM | ≥ 1000 nM | 100 to 1000 nM | 10 to 100 nM | 100 to 1000 nM | 100 to 1000 nM | – | ≥ 1000 nM |
| C[C@H]1CCOc2c(cnn2C)-c2nccc(n2)Nc2cc3c(cn2)c(-c2csc(CN4CCN(C)CC4)n2)nn31 [(103)] | < 10 nM | < 10 nM | < 10 nM | < 10 nM | < 10 nM | 10 to 100 nM | 100 to 1000 nM | – |
| C[C@H]1CCOc2c(cnn2C)-c2nccc(n2)Nc2cc3c(cn2)c(-c2ccc(CN4CCOCC4)n2C)nn31 [(120)] | < 10 nM | < 10 nM | < 10 nM | < 10 nM | < 10 nM | 10 to 100 nM | 100 to 1000 nM | – |
| CCN(CC)CCOc1cc(F)cc(-c2nn3c4cc(ncc24)Nc2ccnc(n2)-c2cnn(C)c2OCC[C@@H]3C)c1 [(133)] | 10 to 100 nM | 10 to 100 nM | 10 to 100 nM | < 10 nM | < 10 nM | 10 to 100 nM | 100 to 1000 nM | – |
| CC1COc2c(cnn2C)-c2nccc(n2)Nc2cc3c(cn2)c(N2CCC2)nn3C1 (stereo not drawn) [(6)] | 10 to 100 nM | 10 to 100 nM | 10 to 100 nM | < 10 nM | < 10 nM | 10 to 100 nM | 100 to 1000 nM | – |
